Reference: patent US4446319A, “Aminocyclitols and their production” (Takeda Chemical Industries, Ltd., priority 1981, dated 1984)

Assays:
[1] = test system: α-glucoside hydrolase; details: reported in Journal of Antibiotics 33, 1575 to 1576 (1980); cited from earlier work
[2] = molecular target: T1, glucoamylase (Rhizopus mold) (Rhizopus oryzae, UniProt P07683); test: glucoamylase inhibitory activity, p-nitrophenyl α-D-glucopyranoside as substrate; type: biochemical; details: substrate 0.01 M p-nitrophenyl α-D-glucopyranoside, pH 6.8, 37° C., read-out: IC50 (concentration of 50% inhibition)
T1 construct: purchased Sigma Chemical Co; host or cells: Rhizopus mold
T1 sequence (P07683 26-604): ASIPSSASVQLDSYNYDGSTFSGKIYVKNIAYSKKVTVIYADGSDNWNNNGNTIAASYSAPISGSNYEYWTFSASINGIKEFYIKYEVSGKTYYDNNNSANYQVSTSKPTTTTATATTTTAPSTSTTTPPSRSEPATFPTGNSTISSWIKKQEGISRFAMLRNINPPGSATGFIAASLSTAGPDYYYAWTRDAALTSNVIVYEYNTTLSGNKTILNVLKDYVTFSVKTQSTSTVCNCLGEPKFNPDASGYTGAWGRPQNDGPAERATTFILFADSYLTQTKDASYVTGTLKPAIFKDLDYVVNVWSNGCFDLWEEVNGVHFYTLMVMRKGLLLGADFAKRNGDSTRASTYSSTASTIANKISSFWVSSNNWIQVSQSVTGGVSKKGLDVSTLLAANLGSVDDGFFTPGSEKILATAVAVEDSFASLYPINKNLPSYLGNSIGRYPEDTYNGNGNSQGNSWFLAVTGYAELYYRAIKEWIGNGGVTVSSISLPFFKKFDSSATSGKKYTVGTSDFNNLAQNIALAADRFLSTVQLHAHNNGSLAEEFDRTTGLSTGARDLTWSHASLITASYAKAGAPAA
Description: (§1) The inhibitory activities against α-glucosidase (yeast, type I, produced by Sigman Chemical Co.) and glucoamylase (Rhizopus mold, produced by Sigma Chemical Co.) when p-nitrophenyl α-D-glucopyranoside is used as a substrate, are determined by adding to 0.25 ml of 0.02 M phosphate buffer (pH 6.8) containing 0.005 mg/ml of α-glucosidase 0.5 ml of a solution of valiolamine in the same buffer and 0.25 ml of a solution of 0.01 M p-nitrophenyl α-D-glucopyranoside in the same buffer, allowing the reaction to proceed at 37° C. for 15 minutes, then adding 3 ml of 0.1 M aqueous sodium carbonate solution to terminate the reaction, and measuring the absorbance of the reaction solution at 400 nm. The 50% inhibition concentration is calculated from the inhibition rates (%) which are determined with inhibitory substance samples of three to five different concentrations.

[3] = molecular target: T2, α-glucosidase (yeast, type I) (Saccharomyces cerevisiae, UniProt P53341); test: glucosidase inhibitory activity, maltose as substrate; type: biochemical; details: substrate 0.05 M maltose, pH 6.8, 37° C., read-out: IC50 (concentration of 50% inhibition)
T2 construct: purchased Sigma Chemical Co; host or cells: yeast
T2 sequence (P53341 whole entry): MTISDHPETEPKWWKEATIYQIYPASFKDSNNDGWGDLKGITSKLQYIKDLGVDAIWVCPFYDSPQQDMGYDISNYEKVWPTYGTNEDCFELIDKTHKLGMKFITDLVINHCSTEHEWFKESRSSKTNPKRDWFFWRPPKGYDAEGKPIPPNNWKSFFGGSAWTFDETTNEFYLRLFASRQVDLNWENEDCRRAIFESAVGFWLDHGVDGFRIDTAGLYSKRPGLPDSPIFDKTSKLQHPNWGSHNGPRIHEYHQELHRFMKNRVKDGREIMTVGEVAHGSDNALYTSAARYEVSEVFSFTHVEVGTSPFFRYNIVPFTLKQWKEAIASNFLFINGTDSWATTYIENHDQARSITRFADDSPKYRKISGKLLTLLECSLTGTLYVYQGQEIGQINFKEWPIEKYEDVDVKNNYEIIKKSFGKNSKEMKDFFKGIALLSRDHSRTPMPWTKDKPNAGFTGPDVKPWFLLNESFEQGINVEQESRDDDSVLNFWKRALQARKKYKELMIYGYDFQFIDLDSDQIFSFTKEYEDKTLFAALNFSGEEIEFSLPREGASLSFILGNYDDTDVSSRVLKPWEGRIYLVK
Description: (§2) The inhibitory activities of valiolamine against α-glucosidase (yeast, type I, produced by Sigma Chemical Co., U.S.A.) as well as maltase and saccharase prepared from porcine intestinal mucosa (prepared in accordance with the procedure as described by B. Borgstrom and A. Dahlqvist in Acta Chem. Scand.; 12, 1997-2006, (1958)), when maltose and sucrose are used as a substrate, are determined by adding to 0.25 ml of a solution of an enzyme prepared by diluting suitably with 0.02 M phosphate buffer (pH 6.8) 0.5 ml of a solution of valiolamine to be tested in the same buffer and 0.25 ml of 0.05 M maltose or 0.05 M sucrose as the substrate in the same buffer allowing the mixture to react at 37° C. for 10 minutes, then adding 3 ml of Glucose B-Test Reagent (a glucose oxidase reagent for measurement of glucose, produced by Wako Pure Chemical Co., Japan), further warming the mixture at 37° C. for 20 minutes and measuring the absorbance of the reaction solution at 505 nm. […]

[4] = toxicity (LD50) in rats; details: rat, in vivo
[5] = molecular target: maltase (porcine, intestinal mucosa); test: maltase inhibitory activity, maltose as substrate; type: biochemical; details: substrate 0.05 M maltose, pH 6.8, 37° C., read-out: IC50 (concentration of 50% inhibition)
Description: as §2

[6] = molecular target: T2, α-glucosidase (yeast, type I); test: glucosidase inhibitory activity, p-nitrophenyl α-D-glucopyranoside as substrate; type: biochemical; details: substrate 0.01 M p-nitrophenyl α-D-glucopyranoside, pH 6.8, 37° C., read-out: IC50 (concentration of 50% inhibition)
Description: as §1

Row | Compound | action on α-glucoside hydrolase [1] | IC50 [2] [µM] | IC50 [3] [µM] | LD50 [4] [mg/kg] | IC50 [5] [µM] | IC50 [6] [µM]
1 | N[C@H]1C=C(CO)[C@@H](O)[C@H](O)[C@H]1O [valienamine] | possesses an action of suppressing the function of α-glucoside hydrolase |  |  |  |  | 
2 | N[C@H]1C[C@](O)(CO)[C@@H](O)[C@H](O)[C@H]1O [valiolamine, 1L(1S)-(1(OH),2,4,5/1,3)-5-amino-1-hydroxymethyl-1,2,3,4-cyclohexanetetrol] |  | 600 | 190 | ≥ 500 | 2.2 | 1100
